Results as given in US20240174693A1, “SOMATOSTATIN RECEPTOR SUBTYPE 4 (SSTR4) AGONISTS AND THEIR APPLICATIONS” (Humanwell Pharmaceutical US, priority 2022, published 2024).
≈ marks a conversion by molar mass, not a printed value. Like-named read-outs stand apart in the source and are kept apart here.

Experiments:
CYP2C9 = target: T1, CYP2C9 (Homo sapiens, UniProt P11712); assay: CYP inhibition in HLM, CYP2C9; assay type: in vitro ADME; conditions: read-out: CYP inhibition (IC50 um) 2C9
T1 construct: from tissue; host or cells: liver microsomes (HLM)
Experimental: (§1) 0.1 M potassium phosphate buffer (K-buffer), pH 7.4 was preheated. K-buffer was prepared by mixing 9.5 mL Stock A into 40.5 mL Stock B. The total volume was brought to 500 mL with Milli-Q water. The buffer was titrated with KOH or H3PO4 to pH 7.4. Stock A (1 M monobasic potassium phosphate) was prepared by adding 136.5 g of monobasic potassium phosphate into 1 L of Milli-Q water. Stock B (1 M dibasic potassium phosphate) was prepared by adding 174.2 g of dibasic potassium phosphate in 1 L of Milli-Q water.
(§2) Serial dilution for test compound and reference inhibitors (400×) was prepared in a 96-well plate. 8 μL of 10 mM test compounds was transferred to 12 μL of ACN. Inhibitor spiking solution was prepared for CYP1A2, CYP2C9 and CYP2D6 in cocktail by adding 12 μL of 1 mM α-Naphthoflavon, 10 μL of 40 mM Sulfaphenazole, 10 μL of 10 mM Quinidine, and 8 μL of DMSO. Individual inhibitor spiking solution for CYP3A4 and CYP2C19 was prepared by adding 8 μL of DMSO stock to 12 μL of ACN. 1:3 serial dilutions were performed in DMSO:ACN mixture (v/v: 40:60).
(§3) NADPH cofactor was prepared by dissolving 66.7 mg NADPH in 10 mL 0.1 M K-buffer, pH7.4. 4×substrate (2 mL for each isoform) was prepared. HLM was added were required on ice. 0.2 mg/mL HLM solution was prepared using 10 μL of 20 mg/mL to 990 μL of 0.1 M K-buffer on ice. 400 μL of 0.2 mg/mL HLM were added to the assay wells and then 2 μL of 400×test compound set were added into the designated wells on ice. 200 μL of 0.2 mg/mL HLM was added to the assay wells and followed by 1 μL of serially diluted reference inhibtor solution into the designated wells on ice. The following solutions were added in duplicated in a 96-well plate on ice: 30 μL of 2×test compound and reference compound in 0.2 mg/mL HLM solution and 15 μL of 4×substrate solution. The 96-well assay plate and NADPH solution were pre-incubated at 37° C. for 5 minutes. 15 μL of pre-warmed 8 mM NADPH solution was added to into the assay plates to initiate the reaction. The assay plate was incubated at 37° C. 5 mins, 10 mins, and 45 mins. […]

CYP3A4 = target: T2, CYP3A4 (Homo sapiens, UniProt P08684); assay: CYP inhibition in HLM, CYP3A4; assay type: in vitro ADME; conditions: read-out: CYP inhibition (IC50 um) 3A
T2 construct: from tissue; host or cells: liver microsomes (HLM)
Experimental: as §1, §2, §3

CYP2D6 = target: T3, CYP2D6 (Homo sapiens, UniProt P10635); assay: CYP inhibition in HLM, CYP2D6; assay type: in vitro ADME; conditions: read-out: CYP inhibition (IC50 um) 2D6
T3 construct: from tissue; host or cells: liver microsomes (HLM)
Experimental: as §1, §2, §3

Solubility = assay type: physicochemical; conditions: aqueous buffer, kinetic from dmso stock; PBS(Ph 7.4), 1 hour shaking at room temperature; read-out: Solubility SolubilityU (um)
Experimental: 10 μL test compound was added to 990 μL buffer. Sample tubes were shaken for 1 hour (1000 rpm) at room temperature. Samples were centrifuged for 10 minutes at 1200 rpm to precipitate un-dissolved particles. Supernatants were collected for LCMSMS or LC-UV analysis.

KM mice = assay: Acetic acid induced writhing test; assay type: in vivo; conditions: 30 mg/kg s.c.; for No. of writhing's: 0.6% acetic acid 15 min after dosing, 30-minute period; for Percentage of Inhibition / Significant compared to the model group: writhing
Experimental: Fifteen minutes after administration, a 0.6% acetic acid solution (5 mL/kg) was injected into the abdominal cavity. The mice were then placed in an observation box, and the number of writhing episodes was recorded within a 30-minute period. The assessment of pain intensity was based on the observation of the mice's writhing behavior.

CYP2C19 = target: T4, CYP2C19 (Homo sapiens, UniProt P33261); assay: CYP inhibition in HLM, CYP2C19; assay type: in vitro ADME; conditions: read-out: CYP inhibition (IC50 um) 2C19
T4 construct: from tissue; host or cells: liver microsomes (HLM)
Experimental: as §1, §2, §3

Thermodynamic solubility = assay type: physicochemical; conditions: aqueous buffer, thermodynamic from solid, PBS(Ph 7.4), equilibrated over night at room temperature
Experimental: Assay buffer was added into compound powder to make 4 mg/ml solution. Sample tubes were shaken for 1 hour at 1000 rpm, then equilibrated over night at room temperature. Samples were centrifuged for 10 minutes at 12000 rpm to precipitate out un-dissolved particles. Supernatants were transferred to new tubes. Concentrations of the supernatants after centrifugation were determined by LCMSMS detection.

CYP1A2 = target: T5, CYP1A2 (Homo sapiens, UniProt P05177); assay: CYP inhibition in HLM, CYP1A2; assay type: in vitro ADME; conditions: read-out: CYP inhibition (IC50 um) 1A2
T5 construct: from tissue; host or cells: liver microsomes (HLM)
T5 sequence (P05177 1-516): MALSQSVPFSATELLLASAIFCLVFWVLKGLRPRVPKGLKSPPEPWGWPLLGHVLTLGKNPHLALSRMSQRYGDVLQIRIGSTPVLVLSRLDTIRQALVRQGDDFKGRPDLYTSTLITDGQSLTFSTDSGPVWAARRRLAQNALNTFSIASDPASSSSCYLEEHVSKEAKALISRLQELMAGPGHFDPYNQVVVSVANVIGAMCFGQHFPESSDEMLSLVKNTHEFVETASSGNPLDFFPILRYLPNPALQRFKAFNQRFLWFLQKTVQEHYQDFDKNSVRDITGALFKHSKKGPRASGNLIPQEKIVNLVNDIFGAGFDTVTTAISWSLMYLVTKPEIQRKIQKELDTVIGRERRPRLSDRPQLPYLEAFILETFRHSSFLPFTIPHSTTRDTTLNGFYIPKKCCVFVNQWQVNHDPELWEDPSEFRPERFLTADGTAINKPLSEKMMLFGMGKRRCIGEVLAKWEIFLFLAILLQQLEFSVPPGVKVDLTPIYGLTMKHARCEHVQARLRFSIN
Experimental: as §1, §2, §3

[1] = read-out: Thermodynamic Solubility Solubility
[2] = read-out: Thermodynamic Solubility Solubility (um)

T2 sequence (P08684 whole entry): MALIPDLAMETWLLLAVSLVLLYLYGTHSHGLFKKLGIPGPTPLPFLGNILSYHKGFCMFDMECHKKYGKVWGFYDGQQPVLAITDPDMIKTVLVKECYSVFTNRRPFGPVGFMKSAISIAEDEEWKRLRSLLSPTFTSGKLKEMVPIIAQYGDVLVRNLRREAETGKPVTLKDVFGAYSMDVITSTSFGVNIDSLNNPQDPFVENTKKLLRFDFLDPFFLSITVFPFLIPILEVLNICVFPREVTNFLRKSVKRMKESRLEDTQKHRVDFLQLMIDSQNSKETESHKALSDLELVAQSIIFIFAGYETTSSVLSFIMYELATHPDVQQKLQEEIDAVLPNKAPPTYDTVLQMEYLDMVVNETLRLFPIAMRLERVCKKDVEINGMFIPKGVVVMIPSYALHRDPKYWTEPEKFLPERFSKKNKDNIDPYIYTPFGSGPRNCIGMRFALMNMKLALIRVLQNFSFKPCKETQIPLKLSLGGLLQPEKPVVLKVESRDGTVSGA
T4 sequence (P33261 whole entry): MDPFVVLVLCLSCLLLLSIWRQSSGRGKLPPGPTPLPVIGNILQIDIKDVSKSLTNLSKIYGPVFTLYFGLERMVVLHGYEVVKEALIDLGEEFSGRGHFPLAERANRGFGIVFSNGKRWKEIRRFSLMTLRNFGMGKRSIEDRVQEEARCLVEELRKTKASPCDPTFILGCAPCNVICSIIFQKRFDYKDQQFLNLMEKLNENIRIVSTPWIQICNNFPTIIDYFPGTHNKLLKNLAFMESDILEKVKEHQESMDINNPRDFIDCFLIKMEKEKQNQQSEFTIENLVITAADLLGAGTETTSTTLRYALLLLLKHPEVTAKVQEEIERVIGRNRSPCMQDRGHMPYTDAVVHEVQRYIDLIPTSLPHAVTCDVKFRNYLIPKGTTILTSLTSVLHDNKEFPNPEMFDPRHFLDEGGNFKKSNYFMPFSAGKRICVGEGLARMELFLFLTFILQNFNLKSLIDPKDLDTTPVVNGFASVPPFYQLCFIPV
T1 sequence (P11712 whole entry): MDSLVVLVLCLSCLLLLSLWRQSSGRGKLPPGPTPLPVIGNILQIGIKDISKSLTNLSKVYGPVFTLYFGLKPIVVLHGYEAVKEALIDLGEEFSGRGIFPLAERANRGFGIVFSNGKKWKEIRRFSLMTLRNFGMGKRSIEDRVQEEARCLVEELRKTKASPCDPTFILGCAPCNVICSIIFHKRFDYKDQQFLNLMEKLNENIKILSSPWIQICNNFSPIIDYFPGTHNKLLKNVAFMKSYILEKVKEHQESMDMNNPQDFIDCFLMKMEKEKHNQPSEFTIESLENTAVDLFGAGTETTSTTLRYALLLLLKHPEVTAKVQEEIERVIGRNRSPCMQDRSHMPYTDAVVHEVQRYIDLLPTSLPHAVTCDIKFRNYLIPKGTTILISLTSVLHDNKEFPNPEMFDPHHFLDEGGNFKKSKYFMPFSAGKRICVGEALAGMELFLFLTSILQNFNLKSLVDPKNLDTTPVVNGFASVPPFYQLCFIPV
T3 sequence (P10635 whole entry): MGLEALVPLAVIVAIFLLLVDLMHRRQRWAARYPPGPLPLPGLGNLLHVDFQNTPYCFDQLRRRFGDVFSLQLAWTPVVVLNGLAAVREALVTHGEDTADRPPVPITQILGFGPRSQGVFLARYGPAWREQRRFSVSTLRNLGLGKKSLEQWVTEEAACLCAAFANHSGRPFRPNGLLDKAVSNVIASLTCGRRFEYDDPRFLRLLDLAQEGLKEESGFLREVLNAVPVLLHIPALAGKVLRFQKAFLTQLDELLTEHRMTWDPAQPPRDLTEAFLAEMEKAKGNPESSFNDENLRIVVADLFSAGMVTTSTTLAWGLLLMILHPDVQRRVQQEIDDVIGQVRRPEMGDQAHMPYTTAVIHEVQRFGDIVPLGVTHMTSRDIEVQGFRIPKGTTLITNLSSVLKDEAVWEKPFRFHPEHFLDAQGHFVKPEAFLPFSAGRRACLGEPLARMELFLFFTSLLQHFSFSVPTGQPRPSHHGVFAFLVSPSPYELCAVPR

| SMILES | IC50 (CYP2C9) | IC50 (CYP3A4) | IC50 (CYP2D6) | solubility at 1 h (Solubility) | No. of writhing's (KM mice) | Percentage of Inhibition (KM mice) | Significant compared to the model group (KM mice) | IC50 (CYP2C19) | solubility thermodynamic (Thermodynamic solubility; [1]) | solubility thermodynamic (Thermodynamic solubility; [2]) | IC50 (CYP1A2) |
| --- | --- | --- | --- | --- | --- | --- | --- | --- | --- | --- | --- |
| CC(C)(NC(=O)[C@H]1[C@@H]2CNC[C@H]1C2)c1ncc2c(Cl)cccn12 [Compound 7, (1R,5S,6r)-N-(2-(8-chloroimidazo[1,5-a]pyridin-3-yl)propan-2-yl)-3-azabicyclo[3.1.1]heptane-6-carboxamide] | > 10 µM | > 10 µM | > 10 µM | 101.75 ± 0.03 µM (≈ 33.9 µg/mL) | 10 | 69.16% | Yes | > 10 µM | 1680 µg/mL | 4.44 mM | > 10 µM |
| CC(C)(NC(=O)[C@H]1[C@@H]2CNC[C@H]1C2)c1ncc2c(Br)cccn12 [Compound 8, (1R,5S,6r)-N-(2-(8-bromoimidazo[1,5-a]pyridin-3-yl)propan-2-yl)-3-azabicyclo[3.1.1]heptane-6-carboxamide] | > 10 µM | > 10 µM | > 10 µM | 91.6 µM (≈ 34.6 µg/mL) | 3 | 86.26% | Yes | > 10 µM | 2080 µg/mL | 4.92 mM | > 10 µM |
| CC(C)(NC(=O)[C@H]1[C@@H]2CNC[C@H]1C2)c1nc(C2CC2)c2ccccn12 [Compound 9, (1R,5S,6r)-N-(2-(1-cyclopropylimidazo[1,5-a]pyridin-3-yl)propan-2-yl)-3-azabicyclo[3.1.1]heptane-6-carboxamide] | > 10 µM | > 10 µM | > 10 µM | 130.5 ± 0.02 µM (≈ 44.2 µg/mL) | 8 | 62.34% | Yes | > 10 µM | 2250 µg/mL | 6 mM | > 10 µM |
